The text below walks through data of patent US20260193264A1, “BENZOYPARAZINE PYRAZINES AND THEIR USES” (FOGHORN THERAPEUTICS INC., priority 2022, published 2026).

Some results are limits rather than exact numbers.

Test [1] concerns the target T1, HiBit-BRG1 fusion protein in stable HeLa cell line expressing HiBit-BRG1 and LgBit (Homo sapiens, UniProt P51532).
T1 construct: expressed in transfected cells
The experiment in a line: HiBiT-BRG1 cell-based degradation assay (Nano-Glo HiBiT, 24 h). Conditions: HeLa HiBit-BRG1/LgBit cells; for DC50: read-out: BRMG1 HiBit Degradation IC50; for Dmax: top dose 30 μM, read-out: BRG1 HiBit Degradation Maximum (%). The method in brief:
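Stable HeLa line co-expressing HiBiT-BRG1 and LgBiT, compound-treated 24 h; luminescence read after Nano-Glo HiBiT lytic reagent. % degradation normalised between DMSO (high control) and 2 μM reference BRM/BRG1 degrader (low control).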
For orientation: With HiBiT, luminescence reflects the tagged protein that the partner subunit can reach.

In test [2] the target is T2, HiBiT-BRM fusion protein in stable HeLa cell line (Homo sapiens, UniProt P51531).
T2 construct: expressed in transfected cells
The experiment in a line: HiBiT-BRM cell-based degradation assay (Nano-Glo HiBiT Lytic Detection, 24 h). Also on record: DC50: scale not given here. Conditions: HeLa HiBiT-BRM cells; for DC50: read-out: BRM HiBit Degradation IC50; for BRM HiBit Degradation Maximum (%): top dose 30 μM. The method in brief: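 Stable HiBiT-BRM HeLa cells were treated with 10-point 3-fold serial dilutions (30 μM final top dose, duplicate) for 24 h, then lysed with LgBiT-containing detection reagent and luminescence read. Degradation % was normalised to DMSO (high control) and 2 μM reference BRM/BRG1 degrader (low control).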

T1 sequence (P51532 whole entry, the tested form may be a part): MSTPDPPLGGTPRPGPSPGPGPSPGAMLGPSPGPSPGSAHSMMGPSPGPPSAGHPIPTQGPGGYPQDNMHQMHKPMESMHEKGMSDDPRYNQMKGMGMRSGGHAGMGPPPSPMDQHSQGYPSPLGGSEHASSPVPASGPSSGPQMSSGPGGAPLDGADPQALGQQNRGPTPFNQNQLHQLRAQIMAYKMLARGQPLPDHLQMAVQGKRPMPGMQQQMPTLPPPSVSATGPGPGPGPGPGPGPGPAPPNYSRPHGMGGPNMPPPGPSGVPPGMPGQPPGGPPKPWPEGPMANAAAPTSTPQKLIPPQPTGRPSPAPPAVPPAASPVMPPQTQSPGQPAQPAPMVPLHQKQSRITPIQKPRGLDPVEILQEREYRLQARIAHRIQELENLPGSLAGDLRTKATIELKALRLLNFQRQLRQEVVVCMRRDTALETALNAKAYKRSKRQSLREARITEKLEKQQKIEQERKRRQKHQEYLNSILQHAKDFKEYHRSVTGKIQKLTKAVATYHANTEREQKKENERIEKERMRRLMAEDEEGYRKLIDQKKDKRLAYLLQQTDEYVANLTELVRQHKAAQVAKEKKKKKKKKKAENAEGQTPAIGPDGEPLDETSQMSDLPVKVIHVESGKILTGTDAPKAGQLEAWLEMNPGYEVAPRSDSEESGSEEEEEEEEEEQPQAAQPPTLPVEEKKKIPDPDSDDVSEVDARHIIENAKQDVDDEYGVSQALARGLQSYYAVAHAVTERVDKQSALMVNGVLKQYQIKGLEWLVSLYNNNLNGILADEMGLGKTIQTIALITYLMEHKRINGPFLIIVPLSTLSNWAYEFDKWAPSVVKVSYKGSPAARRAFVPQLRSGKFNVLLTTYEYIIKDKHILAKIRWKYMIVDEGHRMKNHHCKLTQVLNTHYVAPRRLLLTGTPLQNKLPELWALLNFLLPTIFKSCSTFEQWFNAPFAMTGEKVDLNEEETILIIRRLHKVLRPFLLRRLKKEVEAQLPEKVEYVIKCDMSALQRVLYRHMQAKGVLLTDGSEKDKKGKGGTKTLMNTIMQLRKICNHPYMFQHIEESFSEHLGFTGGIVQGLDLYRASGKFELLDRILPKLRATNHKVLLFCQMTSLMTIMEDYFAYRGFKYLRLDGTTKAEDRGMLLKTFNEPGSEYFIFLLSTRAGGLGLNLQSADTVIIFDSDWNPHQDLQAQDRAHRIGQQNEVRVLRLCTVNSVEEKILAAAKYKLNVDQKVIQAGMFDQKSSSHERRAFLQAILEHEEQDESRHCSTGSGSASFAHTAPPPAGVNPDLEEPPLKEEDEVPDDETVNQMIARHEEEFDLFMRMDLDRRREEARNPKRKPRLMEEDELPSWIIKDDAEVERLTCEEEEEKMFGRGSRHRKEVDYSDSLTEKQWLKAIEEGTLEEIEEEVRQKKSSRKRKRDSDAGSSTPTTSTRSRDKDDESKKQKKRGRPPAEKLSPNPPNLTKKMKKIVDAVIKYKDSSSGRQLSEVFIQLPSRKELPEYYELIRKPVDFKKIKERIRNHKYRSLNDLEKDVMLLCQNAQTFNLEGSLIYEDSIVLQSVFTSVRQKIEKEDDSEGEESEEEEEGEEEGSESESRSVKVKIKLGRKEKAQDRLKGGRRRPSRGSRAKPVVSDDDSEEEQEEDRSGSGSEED
T2 sequence (P51531 whole entry, the tested form may be a part): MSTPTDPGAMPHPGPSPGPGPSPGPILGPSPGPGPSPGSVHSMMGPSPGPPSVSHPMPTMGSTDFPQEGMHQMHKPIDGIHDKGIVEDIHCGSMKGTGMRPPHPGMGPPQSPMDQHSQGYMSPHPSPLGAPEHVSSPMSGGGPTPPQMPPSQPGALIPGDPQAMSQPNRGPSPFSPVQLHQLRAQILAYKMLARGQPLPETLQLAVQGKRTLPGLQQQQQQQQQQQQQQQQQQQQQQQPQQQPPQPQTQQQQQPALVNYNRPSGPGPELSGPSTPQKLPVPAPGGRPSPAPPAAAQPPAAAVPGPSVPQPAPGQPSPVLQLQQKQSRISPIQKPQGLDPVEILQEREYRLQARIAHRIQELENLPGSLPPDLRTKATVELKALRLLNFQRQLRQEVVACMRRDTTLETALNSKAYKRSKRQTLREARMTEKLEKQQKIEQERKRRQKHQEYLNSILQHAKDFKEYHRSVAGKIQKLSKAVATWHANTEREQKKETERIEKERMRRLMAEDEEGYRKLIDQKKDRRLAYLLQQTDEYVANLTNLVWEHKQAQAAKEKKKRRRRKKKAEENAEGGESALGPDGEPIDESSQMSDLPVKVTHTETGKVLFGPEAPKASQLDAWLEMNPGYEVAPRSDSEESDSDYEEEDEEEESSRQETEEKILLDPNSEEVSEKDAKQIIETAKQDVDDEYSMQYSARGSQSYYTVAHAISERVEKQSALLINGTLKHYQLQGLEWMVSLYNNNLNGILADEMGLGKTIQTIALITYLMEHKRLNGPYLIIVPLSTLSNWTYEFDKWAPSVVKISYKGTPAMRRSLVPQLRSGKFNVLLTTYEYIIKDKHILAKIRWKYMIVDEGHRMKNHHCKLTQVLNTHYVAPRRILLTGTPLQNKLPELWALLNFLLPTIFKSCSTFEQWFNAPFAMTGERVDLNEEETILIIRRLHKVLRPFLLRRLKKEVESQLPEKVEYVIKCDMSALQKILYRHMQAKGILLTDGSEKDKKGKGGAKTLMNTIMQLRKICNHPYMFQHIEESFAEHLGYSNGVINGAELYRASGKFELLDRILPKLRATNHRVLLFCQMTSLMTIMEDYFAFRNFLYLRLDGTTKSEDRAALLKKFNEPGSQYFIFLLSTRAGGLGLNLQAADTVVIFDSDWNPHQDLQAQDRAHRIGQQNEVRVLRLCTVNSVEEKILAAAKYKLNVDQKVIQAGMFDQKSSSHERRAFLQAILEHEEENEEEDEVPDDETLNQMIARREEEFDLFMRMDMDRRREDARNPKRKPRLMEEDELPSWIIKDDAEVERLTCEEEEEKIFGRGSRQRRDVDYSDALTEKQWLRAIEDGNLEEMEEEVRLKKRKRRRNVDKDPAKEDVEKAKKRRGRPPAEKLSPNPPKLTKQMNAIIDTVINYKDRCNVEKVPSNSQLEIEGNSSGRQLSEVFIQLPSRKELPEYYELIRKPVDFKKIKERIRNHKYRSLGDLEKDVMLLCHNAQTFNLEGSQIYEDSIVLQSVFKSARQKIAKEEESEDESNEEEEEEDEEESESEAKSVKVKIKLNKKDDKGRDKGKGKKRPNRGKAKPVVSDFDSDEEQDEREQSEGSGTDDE

`Cc1ncsc1-c1ccc([C@H](C)NC(=O)[C@@H]2C[C@@H](O)CN2C(=O)[C@@H](c2cn(-c3ccc4nnc(-c5ccccc5O)cc4c3)nn2)C(C)C)cc1` (single isomer, unassigned) [Compound 161]: in test [1], the DC50 is < 10 nM and the Dmax is > 75%. For the same molecule, in test [2], the DC50 was < 10 nM and the “BRM HiBit Degradation Maximum (%)” value is listed as “A (“A” indicates maximum degradation ≥75%)”.
On to `Cc1ncsc1-c1ccc([C@H](C)NC(=O)[C@@H]2C[C@@H](O)CN2C(=O)C(C(C)C)n2cc(N3CCN(CC4CCCN(c5ccc6nnc(-c7ccccc7O)cc6c5)C4)CC3)nn2)cc1` (some centres unmarked) [Compound 280], for which, in test [1], the DC50 was < 10 nM and the Dmax was > 75%. Also, in test [2], the DC50 is < 10 nM and the “BRM HiBit Degradation Maximum (%)” value is recorded as “A (“A” indicates maximum degradation ≥75%)”.
Consider `Cc1ncsc1-c1ccc([C@H](C)NC(=O)[C@@H]2C[C@@H](O)CN2C(=O)[C@@H](c2cc(N3CCN(c4ccc5nnc(-c6ccccc6O)cc5c4)CC3)no2)C(C)C)cc1` [Compound 57, (2S,4R)-4-hydroxy-1-((R)-2-(3-(4-(3-(2-hydroxyphenyl)cinnolin-6-yl)piperazin-1-yl)isoxazol-5-yl)-3-methylbutanoyl)-N-((S)-1-(4-(4-methylthiazol-5-yl)phenyl)ethyl)pyrrolidine-2-carboxamide], for which, in test [1], the DC50 is > 10 nM and the Dmax was > 75%. Moreover, in test [2], the DC50 was < 10 nM and the “BRM HiBit Degradation Maximum (%)” value is “A (“A” indicates maximum degradation ≥75%)”.
Turning to `Cc1ncsc1-c1ccc([C@H](C)NC(=O)[C@@H]2C[C@@H](O)CN2C(=O)[C@@H](c2cc(N3CC4(CCN4c4ccc5nnc(-c6ccccc6O)cc5c4)C3)no2)C(C)C)cc1` [Compound 102, (2S,4R)-4-hydroxy-1-((R)-2-(3-(1-(3-(2-hydroxyphenyl)cinnolin-6-yl)-1,6-diazaspiro[3.3]heptan-6-yl)isoxazol-5-yl)-3-methylbutanoyl)-N-((S)-1-(4-(4-methylthiazol-5-yl)phenyl)ethyl)pyrrolidine-2-carboxamide], the Dmax in test [1] was < 50%. Also, in test [2], the DC50 is < 10 nM and the “BRM HiBit Degradation Maximum (%)” value is reported as “A (“A” indicates maximum degradation ≥75%)”.
As for `Cc1ncsc1-c1ccc([C@H](C)NC(=O)[C@@H]2C[C@@H](O)CN2C(=O)[C@@H](c2cc(N3CC4(CN(c5cc(C6CC6)c6cc(-c7ccccc7O)nnc6c5)C4)C3)no2)C(C)C)cc1` [Compound 125, (2S,4R)-1-((R)-2-(3-(6-(5-cyclopropyl-3-(2-hydroxyphenyl)cinnolin-7-yl)-2,6-diazaspiro[3.3]heptan-2-yl)isoxazol-5-yl)-3-methylbutanoyl)-4-hydroxy-N-((S)-1-(4-(4-methylthiazol-5-yl)phenyl)ethyl)pyrrolidine-2-carboxamide], in test [1], the Dmax is < 50%. In addition, in test [2], the DC50 is < 10 nM and the “BRM HiBit Degradation Maximum (%)” value is recorded as “A (“A” indicates maximum degradation ≥75%)”.
For the molecule `Cc1cc2nnc(-c3ccccc3O)cc2cc1-c1cc([C@H](C(=O)N2C[C@H](O)C[C@H]2C(=O)N[C@@H](C)c2ccc(-c3scnc3C)cc2)C(C)C)on1` [Compound 149, (2S,4R)-4-hydroxy-1-((R)-2-(3-(3-(2-hydroxyphenyl)-7-methylcinnolin-6-yl)isoxazol-5-yl)-3-methylbutanoyl)-N-((S)-1-(4-(4-methylthiazol-5-yl)phenyl)ethyl)pyrrolidine-2-carboxamide], in test [1], the DC50 was > 10 nM and the Dmax was > 50%. In test [2], the DC50 was < 10 nM and the “BRM HiBit Degradation Maximum (%)” value was “A (“A” indicates maximum degradation ≥75%)”.
The matching figures for `Cc1ncsc1-c1ccc([C@H](C)NC(=O)[C@@H]2C[C@@H](O)CN2C(=O)[C@@H](c2cc(N3CCC(C(=O)N4CC(c5ccc6cc(-c7ccccc7O)nnc6c5)C4)CC3)no2)C(C)C)cc1` [Compound 45]: > 10 nM, > 75%, < 10 nM and “A (“A” indicates maximum degradation ≥75%)”.
`Cc1ncsc1-c1ccc([C@H](C)NC(=O)[C@@H]2C[C@@H](O)CN2C(=O)[C@H](C(C)C)n2cc(N3CCN4CCN(c5ccc6nnc(-c7ccccc7O)cc6c5)CC4C3)nn2)cc1` (some centres unmarked) [Compound 214]: in test [1], the Dmax is > 50%. Besides, in test [2], the DC50 was < 10 nM and the “BRM HiBit Degradation Maximum (%)” value is given as “A (“A” indicates maximum degradation ≥75%)”.
For `Cc1ncsc1-c1ccc([C@H](C)NC(=O)[C@@H]2C[C@@H](O)CN2C(=O)[C@@H](c2cc(N3CCC[C@@H](c4ccc5nnc(-c6ccccc6O)cc5c4)C3)no2)C(C)C)cc1` [Compound 101, (2S,4R)-4-hydroxy-1-((R)-2-(3-((S)-3-(3-(2-hydroxyphenyl)cinnolin-6-yl)piperidin-1-yl)isoxazol-5-yl)-3-methylbutanoyl)-N-((S)-1-(4-(4-methylthiazol-5-yl)phenyl)ethyl)pyrrolidine-2-carboxamide] the same measures were < 50%, > 10 nM and “A (“A” indicates maximum degradation ≥75%)”.
Consider `Cc1ncsc1-c1ccc([C@H](C)NC(=O)[C@@H]2C[C@@H](O)CN2C(=O)[C@@H](c2cc(N3CCC4(CCN(c5ccc6cc(-c7ccccc7O)nnc6c5)CC4)CC3)no2)C(C)C)cc1` [Compound 106, (2S,4R)-4-hydroxy-1-((R)-2-(3-(9-(3-(2-hydroxyphenyl)cinnolin-7-yl)-3,9-diazaspiro [5.5]undecan-3-yl)isoxazol-5-yl)-3-methylbutanoyl)-N-((S)-1-(4-(4-methylthiazol-5-yl)phenyl)ethyl)pyrrolidine-2-carboxamide], for which, in test [1], the DC50 is < 10 nM and the Dmax is > 75%. In addition, in test [2], the DC50 was < 10 nM and the “BRM HiBit Degradation Maximum (%)” value was “A (“A” indicates maximum degradation ≥75%)”.
Regarding `Cc1ncsc1-c1ccc([C@H](C)NC(=O)[C@@H]2C[C@@H](O)CN2C(=O)[C@@H](c2cc(N3CC4(CCN(c5ccc6cc(-c7ccccc7O)nnc6c5)CC4)C3)no2)C(C)C)cc1` [Compound 95, (2S,4R)-4-hydroxy-1-((R)-2-(3-(7-(3-(2-hydroxyphenyl)cinnolin-7-yl)-2,7-diazaspiro[3.5]nonan-2-yl)isoxazol-5-yl)-3-methylbutanoyl)-N-((S)-1-(4-(4-methylthiazol-5-yl)phenyl)ethyl)pyrrolidine-2-carboxamide], in test [1], the DC50 was < 10 nM and the Dmax was > 75%. Besides, in test [2], the DC50 is < 10 nM and the “BRM HiBit Degradation Maximum (%)” value was “A (“A” indicates maximum degradation ≥75%)”.
Turning to `Cc1ncsc1-c1ccc([C@H](C)NC(=O)[C@@H]2C[C@@H](O)CN2C(=O)[C@@H](c2cc(N3CC4(CCN(c5ccc6cc(-c7ccccc7O)nnc6c5)CC4(F)F)C3)no2)C(C)C)cc1` [Compound 105, (2S,4R)-1-((R)-2-(3-(5,5-difluoro-7-(3-(2-hydroxyphenyl)cinnolin-7-yl)-2,7-diazaspiro[3.5]nonan-2-yl)isoxazol-5-yl)-3-methylbutanoyl)-4-hydroxy-N-((S)-1-(4-(4-methylthiazol-5-yl)phenyl)ethyl)pyrrolidine-2-carboxamide], in test [1], the DC50 is < 10 nM and the Dmax is > 75%. In test [2], the DC50 is < 10 nM and the “BRM HiBit Degradation Maximum (%)” value is reported as “A (“A” indicates maximum degradation ≥75%)”.
